Measured values from patent US11414385B2, “Compounds and methods for treating, detecting, and identifying compounds to treat apicomplexan parasitic diseases” (The University of Chicago, priority 2015, dated 2022).
Values after ≈ are worked out from the molar mass of the structure shown. “Also recorded” adds a separate entry of the source.

Assays:
[1] = tested on: Toxoplasma gondii (Pru strain expressing luciferase) tachyzoites; assay: Toxoplasma in vivo, IVIS luminescence in mice; conditions: 5 mg/kg/day IP
Method: IVIS. Mice were infected intraperitoneally with 20×10^3 Toxoplasma gondii (Pru strain expressing luciferase) tachyzoites. Treatment commenced 2 hours later with JAG21 (5 mg/kg) which was dissolved in DMSO and administered intraperitoneally in a total volume of 0.05 ml. Mice were imaged every second day starting on day 4 post infection using a IVIS Spectrum (Caliper Life Sciences) for a 1 minute exposures, with medium binning, 20 minutes post injection with 150 mg/kg of D-luciferin potassium salt solution.

[2] = tested on: RH-YFP; assay: Assessment of compound degradation and microbicidal effect on Toxoplasma; type: cell-based, Toxoplasma gondii
Method: HFF were cultured in a 96-well plate and infected with RH-YFP as described above on Day 0, 20 μL of compound was added to 9 wells for each compound and concentration (3 conditions, 3 wells per condition). In condition I, media was removed and replaced with fresh media on Day 3. In condition II, media was removed and replaced with fresh media and more compound on Day 3. In condition III, media was not replaced on Day 3, nor was the compound refreshed. On Day 6, media was removed and replaced with clean media in all wells. On Day 3, 6, and 9 plate was read in the fluorimeter and analyzed graphically in Prism (GraphPad Software).

[3] = tested on: P. falciparum Dd2; assay: SYBR Green drug sensitivity of Dd2 and cytochrome b / scDHODH lines; type: cell-based, Plasmodium falciparum
Method: We used the following parasite line from the MR4 repository of the American Type Culture Collection (ATCC): Dd2 (MRA-156). Mutant Dd2 parasites harboring a G33A or G33V substitution in cytochrome b were as reported. Dd2 parasites with a G131 S mutation in cytochrome b and transgenic lines expressing a chromosomally integrated copy of the S. cerevisiae DHODH were utilized as previously described. Parasites were cultured by standard methods in RPMI media supplemented with 5% human O^+ serum and 0.25% AlbuMAX® II (Life Technologies 11021-045).
Drug susceptibility was measured using the SYBR Green method. Twelve point curves based on 2-fold dilutions of the test compound were carried out in triplicate each day and replicated on at least three different days. EC50 values were calculated using a nonlinear regression curve fit in Prism 6.0 for Mac (GraphPad Software, Inc.).

[4] = tested on: Dd2 parasites; assay: Isobologram drug combination assay (fixed ratio, FIC); type: cell-based, Plasmodium falciparum; conditions: Dd2, fixed ratios
Method: Isobologram experiments were performed in similar fashion utilizing the modified fixed ratio methodology. Briefly, MJM170 and either atovaquone or cycloguanil or BRD6323 were mixed at multiple fixed volumetric ratios (10:0, 8:2, 6:4, 4:6, 2:8, and 0:10) and then serially diluted in 12-point 2-fold dilutions and dispensed in triplicate to 384-well assay plates and replicated on three different days. EC50 values were calculated as above, and FICs were calculated for each drug combination as described^S76. Synergy was defined as an FIC <1.0, additivity as FIC=1.0, and antagonism as FIC >1.0.

[5] = FaSSIF solubility pH 6.5; type: physicochemical
[6] = tested on: MDCK-MDR1 cells; assay: in vitro; type: in vitro ADME; conditions: dog, MDCK-MDR1
[7] = tested on: S. cerevisiae M221Q and M221F cytochrome b mutants; assay: Yeast growth inhibition, cytochrome b Qi mutants; type: cell-based, Saccharomyces cerevisiae
From the text: Three S. cerevisiae strains were used: M221Q and M221F cytochrome b mutants and wild type. They share the same nuclear genetic background deriving from AD1-9 (kindly given by M. Ghislain, UCL, Belgium). AD1-9 harbors multiple deletions in the ABC transporter genes that render the strain more sensitive to drugs than standard yeast strains^S65.
Cytochrome b mutant M221F was generated by mitochondrial transformation as described. M221 Q was selected as suppressor from a respiratory deficient mutant. Analysis of revertants from respiratory deficient mutants within the center N of cytochrome b in Saccharomyces cerevisiae.
Protocol: Yeast strains were grown over 48 hours at 33° C. in liquid YPG medium [1% yeast extract, 2% (wt/vol) peptone, and 3% (vol/vol) glycerol). Cultures were diluted to an OD600 of 0.05 and grown for 2 hrs. Cultures were then combined with YPG containing 6% melted agar for a total volume of 15-20 mL and poured onto OmniTray single-well rectangular plates that measured 86 mm by 128 mm (ThermoScientific). Filter paper disks (7 mm diameter, […]) were placed onto the cooled agar plates. […] Images were obtained after 4 days using GelDoc XR Imaging System (BioRad) and Quantity One software. Drug effect was assessed by the presence and size of a zone of inhibition around the disks.

[8] = tested on: T. gondii Me49 strain cysts; assay: Established brain cysts in mice (chronic infection); type: in vivo, Toxoplasma gondii; conditions: cysts established >2 months earlier, 12.5-25 mg/kg for 17 days
Method: The ability of compounds to reduce cyst burden and prevent encephalitis induced by the Type II strain of T. gondii were tested. Encephalitis was assessed by histological analyses and parasite burdens evaluated by quantitation of cysts.
The oocyst challenge model is ideal for this study because oocysts can be diluted at one time and stored at 4° C. for 12 months without loss of infectivity titer. For treatment of chronic infection there were 5 to 10 mice per group treated 2 months after infection was established by compound in DMSO for parenteral administration administered once per day. Treatment was for 17 days.

SMILES	effect on T. gondii tachyzoites in mice [1]	compound degradation over time ([2]; 6-day exposure in culture)	microbicidal effect ([2]; RH-YFP, media replaced)	cross-resistance in cytochrome b drug-resistant mutant lines ([3]; Dd2 G33A and Dd2 G33V)	EC50 ([3]; Plasmodium falciparum, DD2) [nM]	inhibition of parasite supplemented with yeast cytosolic DHODH ([3]; scDHODH line)	combination effect with BRD6323 [4]	combination effect with atovaquone [4]	combination effect with cycloguanil [4]	solubility ([5]; FaSSIF, pH 6.5, fassif) [µM]	improved FaSSIF/FeSSIF (pH 6.5) solubility ([5]; relative to ELQ 271) [fold]	MDCK-MDR1 Efflux Ratio [6]	growth inhibition of M221Q / M221F yeast [7]	effect on numbers of Me49 strain cysts in mice [8]	effect on numbers of Me49 strain cysts in mice ([8]; listed as MJM 170)
Cc1[nH]c2c(c(=O)c1-c1ccc(Oc3ccc(OC(F)(F)F)cc3)cc1)CCCC2 [JAG21, 2-methyl-3-(4-(4-(trifluoromethoxy)phenoxy)phenyl)-5,6,7,8-tetrahydroquinolin-4(1H)-one]	protects against Toxoplasma gondii tachyzoites; also recorded: cleared; also recorded: eliminates T. gondii tachyzoites	did not appear that the compound was being degraded over time	Neither compound was found to be microbicidal	–	–	–	–	–	–	–	–	–	–	–	–
Cc1[nH]c2c(c(=O)c1-c1ccc(Oc3ccccc3)cc1)CCCC2 [MJM170]	–	–	–	without cross-resistance	29.5	cannot inhibit	Antagonism	modest synergy; also recorded: modestly synergistic; also recorded: Slight synergy	additive effect	9.8 (≈ 3.25 µg/mL)	3	1.23	resistant	modestly reduced numbers	reduces cysts
